Source: patent US4814340A, “1,4-diaryl alkane derivatives having insecticidal and acaricidal activity” (priority 1982, dated 1989)

Legend:
plants of Solanacede = experiment: phytotoxicity to plants of Solanacede
yearling carps = experiment: Test 5 (Fish Toxicity); assay type: in vivo, carp
Method: (§1) Compounds (a) through (g) described below were tested as comparative compounds in the same manner as the compounds of the present invention. All the tests were doubly carried out. Namely, each result was expressed by an average value of two data.
A water tank having a width of 60 cm, a length of 30 cm and a height of 40 cm was filled with water, and 10 yearling carps having a body length of about 5 cm were set free in the tank and adapted to the environment in the tank. An acetone solution of a test compound was applied into water so as to become a concentration of 1 or 0.1 ppm in water by adding said acetone solution at a rate of one part by volume per 100 parts by volume of water. 48 hours after, the number of killed and living carps was counted and the effect of a test compound on carps was examined.

[1] = system: green rice leafhopper (female adults); experiment: Test 2 (Effect on Green Rice Leafhopper); assay type: in vivo; settings: 48 hours, marked * in Table 3
[2] = system: green rice leafhopper (female adults); experiment: Test 2 (Effect on Green Rice Leafhopper); assay type: in vivo; settings: Nephotettix cincticeps, 48 hours, female adults, read-out: Mortality (%)
Method: as §1
Four or five seedlings of paddy rice with three leaves were bundled, and thereon the same dilution of the emulsifiable concentrate as used in Test 1 was sprayed in an amount of 3 ml. The bundle was dried and covered with a metal net cylinder, and 10 female adults of green rice leafhopper were set free in the cylinder. 48 hours after, the number of killed adults was counted.

[3] = system: German cockroach (female adults); experiment: Test 3 (Effect on German Cockroach); assay type: in vivo, Blatella germanica (German cockroach); settings: Blattella germanica, 48 hours, female adults, read-out: Mortality (%); for mortality at 1 mg/m2: 1 mg/m^2; for mortality at 5 mg/m2: 5 mg/m^2
Method: as §1
One ml of an acetone solution of a test compound of a specified concentration was poured in a high Petri dish having a diameter of 9 cm and a height of 9 cm. The Petri dish was allowed to stand, and thereby the acetone was evaporated. The upper part of the inner wall of the Petri dish was treated with butter to prevent the adults of German cockroach from escaping from the Petri dish. 10 female adults of German cockroach were set free in each Petri dish. 48 hours after, the number of killed adults was counted.

[4] = system: two-spotted spider mite (adults); experiment: Test 4 (Effect on Two-Spotted Spider Mite); assay type: in vivo; settings: Tetranychus urticae; 200 ppm; 24 hours; adults; read-out: Mortality (%)
Method: as §1
A kidney bean leaf disc (20 mm in diameter) perforated with a cork borer was placed on water-impregnated absorbent cotton, and thereon 20 adults of two-spotted spider mite were set free, and the resulting set was allowed to stand around the clock. The same dilution of the emulsifiable concentrate of a test compound having a concentration of 200 ppm as used in Test 1 and Test 2, was applied by an applicator having a diameter of 20 cm and a height of 60 cm in an amount of 3 ml. 24 hours after, the number of killed adults was counted.

[5] = system: common cutworm (third-instar larvae); experiment: Test 1 (Effect on Common Cutworm); assay type: in vivo; settings: Spodoptera litura, 48 hours, third-instar larvae, read-out: Mortality (%)
Method: as §1
The emulsifiable concentrate of the test compound, prepared according to the method described in Formulation Example 1, was diluted with water to a specified concentration. Sweet potato leaves were sufficiently immersed in the dilution. The sweet potato leaves were dried and placed in a plastic cup having a diameter of 10 cm, and 10 third-instar larvae of common cutworm were set free in each cup. 48 hours after, the numbers of killed and living larvae were counted and the mortality was calculated.

Row | Molecule | phytotoxicity to plants of Solanacede (plants of Solanacede) | Mortality(%) 48 Hours After (yearling carps; 0.1 ppm in water) | Mortality(%) 48 Hours After (yearling carps; 1 ppm in water) | Rate of Number of Adults KnockedDown ([1]; 20 ppm) | Rate of Number of Adults KnockedDown ([1]; 100 ppm) | mortality at 20 ppm [2] | mortality at 100 ppm [2] | mortality at 1 mg/m2 [3] | mortality at 5 mg/m2 [3] | mortality at 200 ppm [4] | mortality at 20 ppm [5] | mortality at 100 ppm [5]
1 | CC(C)C(C(=O)OC(C#N)c1cccc(Oc2ccccc2)c1)c1ccc(Cl)cc1 (stereo not shown) [(g), Fenvalerate, reference compound] | observed | 100% | 100% |  |  |  |  |  |  |  |  | 
2 | 1-(3-Benzoylphenyl)-4-(4-chlorophenyl)-4-methylpentane [Compound 11] |  |  |  | 60% | 90% |  |  |  |  |  |  | 
3 | CCOc1ccc(C(C)(C)CCCN2C(=O)C3=C(CCCC3)C2=O)cc1 [Compound 12, 1-(3,4,5,6-Tetrahydrophthalimido)-4-(4-ethoxyphenyl)-4-methylpentane] |  |  |  | 40% | 80% |  |  |  |  |  |  | 
4 | CCOc1ccc(C(C)(C)CCCc2cccc(Oc3ccccc3)c2)cc1 [Compound 24] |  | 0% | 0% |  |  | 100% | 100% | 100% | 100% | 95% | 100% | 100%
5 | CC(C)(CCCc1ccc(F)c(Oc2ccccc2)c1)c1ccc(Cl)cc1 [Compound 20] |  | 0% | 0% |  |  | 100% | 100% | 100% | 100% | 100% | 100% | 100%
